Measurements from patent US20030134859A1 (SANKYO COMPANY, LIMITED, priority 2000, published 2003).

Legend:
human PPAR γ 2 [1] = biological target: T1, human PPAR γ 2 (Homo sapiens, UniProt P37231); test: Inhibitory activity against PPAR γ transcription in the presence of agonist compound A, luciferase reporter; type: cell-based; conditions: in the presence of 10 nM compound A (agonist); MG63 cells transfected with pSG5-hPPARg and pGV-P2-PPRE; 24 hr
T1 construct: expressed in transfected cells; host or cells: human osteosarcoma MG63, transiently co-transfected with pSG5-hPPARg and the reporter pGV-P2-PPRE
T1 sequence (P37231 1-505): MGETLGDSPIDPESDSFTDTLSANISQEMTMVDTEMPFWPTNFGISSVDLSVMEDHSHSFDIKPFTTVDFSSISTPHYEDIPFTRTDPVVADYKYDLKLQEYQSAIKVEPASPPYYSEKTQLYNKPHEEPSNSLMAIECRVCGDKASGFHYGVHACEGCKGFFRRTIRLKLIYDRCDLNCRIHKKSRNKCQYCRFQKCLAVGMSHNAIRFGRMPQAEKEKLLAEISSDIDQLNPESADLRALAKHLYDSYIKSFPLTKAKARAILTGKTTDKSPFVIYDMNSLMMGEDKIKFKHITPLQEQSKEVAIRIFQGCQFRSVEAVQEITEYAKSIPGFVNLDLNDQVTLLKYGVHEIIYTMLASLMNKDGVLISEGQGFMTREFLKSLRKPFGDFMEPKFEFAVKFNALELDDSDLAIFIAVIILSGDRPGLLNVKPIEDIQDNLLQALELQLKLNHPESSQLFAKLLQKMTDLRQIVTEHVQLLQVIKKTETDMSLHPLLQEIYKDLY

human PPAR γ 2 [2] = biological target: T1, human PPAR γ 2; test: PPAR γ transcriptional activity, luciferase reporter, test compound alone; type: cell-based; conditions: concentration indicating Emax/2, MG63 cells transfected with pSG5-hPPARg and pGV-P2-PPRE, 24 hr
In short: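 Human osteosarcoma MG63 cells transiently co-transfected with human PPARγ2 expression plasmid and PPRE-luciferase reporter (rat acyl-CoA oxidase promoter element), then exposed 24 h to test compound alone. Luciferase luminescence gave dose-response curves; EC50 is the concentration giving half of the compound's maximal activity (Emax).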

IC50 (human PPAR γ 2 [1]) [nM] | EC50 (human PPAR γ 2 [2]) [nM] | Compound
31 | 0.7 | O=C(Nc1ccc(NC(=S)Nc2ccncc2)cc1)c1cc([N+](=O)[O-])ccc1Cl [Example 259, N-[4-[(Pyridin-4-yl)aminothiocarbonylamino]phenyl]-(2-chloro-5-nitrophenyl)carboxamide]
46 | 160 | N-(Ethoxyphenyl)-(2-chloro-5-nitrophenyl)carboxamide [Example 229]
42 | 8.7 | N-[4-(Pyrrolidinylsulfonyl)phenyl]-(2-chloro-5-nitrophenyl)carboxamide [Example 152]
